Source: publication PMC10574143, “Exploring the Solubility Limits of Edaravone in Neat Solvents and Binary Mixtures: Experimental and Machine Learning Study” (Molecules, 2023)

Experiment: shake-flask solubility measurement, spectrophotometric at 243 nm
Format: physicochemical
Method: To assess the solubility of EDA in various solvents, excess amounts of EDA were added to test tubes containing either a specific solvent or a binary mixture containing the organic solvent and water in different molar proportions. The saturated solutions were then placed in an Orbital Shaker Incubator ES-20/60 from Biosan (Riga, Latvia) and incubated at various temperatures for 24 h. Four temperature points, ranging from 25 °C to 40 °C with 5 °C intervals, were used for the incubation. The incubator temperature was precisely adjusted to within 0.1 degrees, with a variance of 0.5 degrees during the 24 h cycle. The samples were simultaneously mixed at 60 rev/min. Next, the samples were filtered using syringes equipped with PTFE filters with a pore size of 0.22 µm. To prevent precipitation due to temperature differences between the solutions and instruments, all test tubes, pipette tips, syringes, and filters were preheated. They were placed in the same incubator as the samples and heated to the same temperature before handling. This step was particularly crucial when dealing with elevated temperatures, as the temperature difference could be substantial. After filtration, small quantities of the obtained filtrate were diluted in test tubes containing methanol and measured spectrophotometrically. The density of each solution was measured by weighing a 1 mL volume in 10 mL volumetric flasks using an Eppendorf Reference 2 pipette (Hamburg, Germany) with a systematic error of 6 μL. The RADWAG AS 110 R2.PLUS analytical balance (Radom, Poland) with a precision of 0.1 mg was also used for this purpose. Solubility determination was conducted using the A360 spectrophotometer from AOE Instruments (Shanghai, China). Spectra were recorded in the wavelength range of 190 nm to 400 nm with a resolution of 1 nm. Methanol was used for both diluting the samples and the initial calibration of the spectrophotometer. The analytical wavelength was set at 243 nm, and the absorbance at this wavelength was used to determine the EDA concentration in the samples and subsequently calculate its mole fractions. To ensure accuracy, three separate measurements were performed, and the resulting values were averaged. The calibration curve for EDA was prepared by diluting an initial stock solution and measuring the resulting solutions’ spectrophotometric properties at decreased concentrations. The molar concentrations of the measured solutions ranged from 0.0023 to 0.023 mg/mL. The relationship between the absorbance values at 243 nm and the solution concentration was described by a linear equation A = 85.603 × C − 0.0179, with high linearity denoted by the determination coefficient R^2 equal to 0.9993.

Edaravone solubility (xEDA) (BG-water, x2*=0.0 (water), 25 °C): 0.02 (<±0.01) xEDA, ×102
Edaravone solubility (xEDA) (BG-water, x2*=0.1, 25 °C): 0.12 (±0.02) xEDA, ×102
Edaravone solubility (xEDA) (BG-water, x2*=0.2, 25 °C): 0.29 (±0.04) xEDA, ×102
Edaravone solubility (xEDA) (BG-water, x2*=0.3, 25 °C): 0.53 (±0.03) xEDA, ×102
Edaravone solubility (xEDA) (BG-water, x2*=0.4, 25 °C): 0.83 (±0.04) xEDA, ×102
Edaravone solubility (xEDA) (BG-water, x2*=0.5, 25 °C): 1.07 (±0.05) xEDA, ×102
Edaravone solubility (xEDA) (BG-water, x2*=0.6, 25 °C): 1.27 (±0.03) xEDA, ×102
Edaravone solubility (xEDA) (BG-water, x2*=0.7, 25 °C): 1.42 (±0.05) xEDA, ×102
Edaravone solubility (xEDA) (BG-water, x2*=0.8, 25 °C): 1.50 (±0.03) xEDA, ×102
Edaravone solubility (xEDA) (BG-water, x2*=0.9, 25 °C): 1.51 (±0.04) xEDA, ×102
Edaravone solubility (xEDA) (DG-water, x2*=0.0 (water), 25 °C): 0.02 (<±0.01) xEDA, ×102
Edaravone solubility (xEDA) (DG-water, x2*=0.1, 25 °C): 0.09 (±0.01) xEDA, ×102
Edaravone solubility (xEDA) (DG-water, x2*=0.2, 25 °C): 0.25 (±0.01) xEDA, ×102
Edaravone solubility (xEDA) (DG-water, x2*=0.3, 25 °C): 0.48 (±0.04) xEDA, ×102
Edaravone solubility (xEDA) (DG-water, x2*=0.4, 25 °C): 0.74 (±0.03) xEDA, ×102
Edaravone solubility (xEDA) (DG-water, x2*=0.5, 25 °C): 1.09 (±0.01) xEDA, ×102
Edaravone solubility (xEDA) (DG-water, x2*=0.6, 25 °C): 1.39 (±0.02) xEDA, ×102
Edaravone solubility (xEDA) (DG-water, x2*=0.7, 25 °C): 1.65 (±0.05) xEDA, ×102
Edaravone solubility (xEDA) (DG-water, x2*=0.8, 25 °C): 1.87 (±0.04) xEDA, ×102
Edaravone solubility (xEDA) (DG-water, x2*=0.9, 25 °C): 1.98 (±0.02) xEDA, ×102
Edaravone solubility (xEDA) (PG-water, x2*=0.0 (water), 25 °C): 0.02 (<±0.01) xEDA, ×102
Edaravone solubility (xEDA) (PG-water, x2*=0.1, 25 °C): 0.06 (±0.01) xEDA, ×102
Edaravone solubility (xEDA) (PG-water, x2*=0.2, 25 °C): 0.15 (±0.01) xEDA, ×102
Edaravone solubility (xEDA) (PG-water, x2*=0.3, 25 °C): 0.26 (±0.02) xEDA, ×102
Edaravone solubility (xEDA) (PG-water, x2*=0.4, 25 °C): 0.40 (±0.02) xEDA, ×102
Edaravone solubility (xEDA) (PG-water, x2*=0.5, 25 °C): 0.54 (±0.02) xEDA, ×102
Edaravone solubility (xEDA) (PG-water, x2*=0.6, 25 °C): 0.71 (±0.02) xEDA, ×102
Edaravone solubility (xEDA) (PG-water, x2*=0.7, 25 °C): 0.86 (±0.02) xEDA, ×102
Edaravone solubility (xEDA) (PG-water, x2*=0.8, 25 °C): 0.99 (±0.02) xEDA, ×102
Edaravone solubility (xEDA) (PG-water, x2*=0.9, 25 °C): 1.00 (±0.02) xEDA, ×102
Edaravone solubility (xEDA) (TG-water, x2*=0.0 (water), 25 °C): 0.02 (<±0.01) xEDA, ×102
Edaravone solubility (xEDA) (TG-water, x2*=0.1, 25 °C): 0.31 (±0.04) xEDA, ×102
Edaravone solubility (xEDA) (TG-water, x2*=0.2, 25 °C): 0.78 (±0.03) xEDA, ×102
Edaravone solubility (xEDA) (TG-water, x2*=0.3, 25 °C): 1.28 (±0.07) xEDA, ×102
Edaravone solubility (xEDA) (TG-water, x2*=0.4, 25 °C): 1.72 (±0.06) xEDA, ×102
Edaravone solubility (xEDA) (TG-water, x2*=0.5, 25 °C): 2.11 (±0.08) xEDA, ×102
Edaravone solubility (xEDA) (TG-water, x2*=0.6, 25 °C): 2.54 (±0.08) xEDA, ×102
Edaravone solubility (xEDA) (TG-water, x2*=0.7, 25 °C): 3.03 (±0.09) xEDA, ×102
Edaravone solubility (xEDA) (TG-water, x2*=0.8, 25 °C): 3.51 (±0.09) xEDA, ×102
Edaravone solubility (xEDA) (TG-water, x2*=0.9, 25 °C): 3.58 (±0.06) xEDA, ×102
mole fraction solubility xEDA (TG-water, x2*=0.9, 25 °C): 3.58 × 10^−2 mole fraction
cosolvency effect in aqueous binary solvent (diethylene glycol (DG)-water, 25 °C): no cosolvency effect was observed
Edaravone solubility (xEDA) (neat 1,2-propanediol (PG), x2*=1.0, 25 °C): 0.85 (±0.01) xEDA, ×102
Edaravone solubility (xEDA) (neat 1,3-butanediol (BG), x2*=1.0, 25 °C): 1.43 (±0.04) xEDA, ×102
Edaravone solubility (xEDA) (neat 2,4-dimethylphenol (DMP), 25 °C): 1.88 (±0.05) xEDA, ×102
Edaravone solubility (xEDA) (neat 2,4-dimethylphenol (DMP), 30 °C): 2.82 (±0.58) xEDA, ×102
Edaravone solubility (xEDA) (neat 2,4-dimethylphenol (DMP), 35 °C): 4.08 (±0.21) xEDA, ×102
Edaravone solubility (xEDA) (neat 2,4-dimethylphenol (DMP), 40 °C): 5.65 (±0.25) xEDA, ×102
Edaravone solubility (xEDA) (neat 4-formylmorpholine (4FM), 25 °C): 1.11 (±0.01) xEDA, ×102
Edaravone solubility (xEDA) (neat 4-formylmorpholine (4FM), 30 °C): 1.46 (±0.08) xEDA, ×102
Edaravone solubility (xEDA) (neat 4-formylmorpholine (4FM), 35 °C): 1.76 (±0.19) xEDA, ×102
Edaravone solubility (xEDA) (neat 4-formylmorpholine (4FM), 40 °C): 2.17 (±0.01) xEDA, ×102
Edaravone solubility (xEDA) (neat DMSO, 25 °C): 7.58 (±0.32) xEDA, ×102
Edaravone solubility (xEDA) (neat DMSO, 30 °C): 12.25 (±0.16) xEDA, ×102
Edaravone solubility (xEDA) (neat DMSO, 35 °C): 20.1 (±0.15) xEDA, ×102
Edaravone solubility (xEDA) (neat DMSO, 40 °C): 29.81 (±1.14) xEDA, ×102
mole fraction solubility xEDA (neat DMSO, 40 °C): 29.81 × 10^−2 mole fraction
Edaravone solubility (xEDA) (neat NMP, 25 °C): 3.83 (±0.01) xEDA, ×102
Edaravone solubility (xEDA) (neat NMP, 30 °C): 4.96 (±0.49) xEDA, ×102
Edaravone solubility (xEDA) (neat NMP, 35 °C): 6.94 (±0.19) xEDA, ×102
Edaravone solubility (xEDA) (neat NMP, 40 °C): 8.61 (±0.21) xEDA, ×102
mole fraction solubility xEDA (neat TEG, 25 °C): 4.63 × 10^−2 mole fraction
mole fraction solubility xEDA (neat TEG, 40 °C): 21.21 × 10^−2 mole fraction
Edaravone solubility (xEDA) (neat diethylene glycol (DG), x2*=1.0, 25 °C): 2.04 (±0.06) xEDA, ×102
Edaravone solubility (xEDA) (neat diglyme (DIG), 25 °C): 2.05 (±0.02) xEDA, ×102
Edaravone solubility (xEDA) (neat diglyme (DIG), 30 °C): 2.69 (±0.04) xEDA, ×102
Edaravone solubility (xEDA) (neat diglyme (DIG), 35 °C): 3.33 (±0.11) xEDA, ×102
Edaravone solubility (xEDA) (neat diglyme (DIG), 40 °C): 4.16 (±0.06) xEDA, ×102
Edaravone solubility (xEDA) (neat tetraglyme (TEG), 25 °C): 4.63 (±0.05) xEDA, ×102
Edaravone solubility (xEDA) (neat tetraglyme (TEG), 30 °C): 8.63 (±0.22) xEDA, ×102
Edaravone solubility (xEDA) (neat tetraglyme (TEG), 35 °C): 13.05 (±0.19) xEDA, ×102
Edaravone solubility (xEDA) (neat tetraglyme (TEG), 40 °C): 21.21 (±0.64) xEDA, ×102
mole fraction solubility xEDA (neat triethylene glycol (TG), 25 °C): 2.75 × 10^−2 mole fraction
Edaravone solubility (xEDA) (neat triethylene glycol (TG), x2*=1.0, 25 °C): 2.75 (±0.08) xEDA, ×102
Edaravone solubility (xEDA) (neat triglyme (TIG), 25 °C): 1.53 (±0.07) xEDA, ×102
Edaravone solubility (xEDA) (neat triglyme (TIG), 30 °C): 2.20 (±0.04) xEDA, ×102
Edaravone solubility (xEDA) (neat triglyme (TIG), 35 °C): 3.11 (±0.17) xEDA, ×102
Edaravone solubility (xEDA) (neat triglyme (TIG), 40 °C): 4.57 (±0.39) xEDA, ×102
Compound: CC1=NN(c2ccccc2)C(=O)C1 [Edaravone, 5-methyl-2-phenyl-4H-pyrazol-3-one]
solubility at x2* = 0.9 versus pure solvent (1,2-propanediol (PG)-water, 25 °C): higher solubility compared to pure solvents
solubility at x2* = 0.9 versus pure solvent (1,3-butanediol (BG)-water, 25 °C): higher solubility compared to pure solvents
